Measured values from patent publication US12110283B2, “Carbonic anhydrase targeting agents and methods of using same” (VisEn Medical, Inc., priority 2011, dated 2024).
pKi: −log10 of the molar value.

Experiments:
CA IX [1] = biological target: T1, CA IX (Homo sapiens, UniProt Q16790); assay: Ki by stopped flow CO2 hydration assay, CA IX; assay type: biochemical; conditions: for pKi: rate of CO2 hydration, stopped flow method
T1 construct: confirming upregulation and expression of CA IX in these cells; endogenous in cells; host or cells: HeLa cells, hypoxic (1% O2) or normoxic
Description: (§1) In this experiment, Ki values were determined by measuring the rate of CO2 hydration of the CA spectrophotometrically by a stopped flow method in the presence of varying concentrations of the CA agents.

CA II = CA II (Homo sapiens, UniProt P00918); assay: Ki by stopped flow CO2 hydration assay, CA II; assay type: biochemical; conditions: rate of CO2 hydration, stopped flow method
Description: as §1

CA XII = CA XII (Homo sapiens, UniProt O43570); assay: Ki by stopped flow CO2 hydration assay, CA XII; assay type: biochemical; conditions: rate of CO2 hydration, stopped flow method
Description: as §1

CA XIV = CA XIV (Homo sapiens, UniProt Q9ULX7); assay: Ki by stopped flow CO2 hydration assay, CA XIV; assay type: biochemical; conditions: rate of CO2 hydration, stopped flow method
Description: as §1

CA IX [2] = biological target: T1, CA IX; assay: Carbonic anhydrase dependent binding of CA agents to HeLa cells (fluorescence microscopy, flow cytometry); assay type: cell-based; conditions: for binding to hypoxic HeLa cells, flow cytometry (FIG. 3) / binding to hypoxic and normoxic HeLa cells, fluorescence microscopy (FIG. 2): HeLa cells 24 h in air or 1% O2, agents 1 μM, 30 min; for binding to hypoxic HeLa cells after excess acetazolamide, fluorescence microscopy (FIG. 2) / signal on hypoxic HeLa cells with acetazolamide, flow cytometry (FIG. 3): acetazolamide 100 μM for 2 hour before the agent
Description: Cell binding assays using HeLa cells cultured under […] were performed. Hela cells (28,000 cells/cm^2) were cultured in 6 well culture plates for 24 h under normoxic (air) or hypoxic (1% O2) conditions. Incubation with a fluorescent anti CA IX Ab (R&D systems) was performed in one well as a positive control followed by incubation for 1 h at 37° C. Carbonic anhydrase agents A5 and A3 (1 μM) or nonbinding control agent D3 were added to individual wells followed by incubation for 30 min. Cells were rinsed three times with PBS then scraped with 2 mL, transferred to 5 mL tubes and then spun for 10 min at 1000 rpm to discard the PBS. The cells were then re-suspend the cells in 400 μL PBS and analyzed by fluorescence microscopy and flow cytometry. For fluorescence microscopy, nuclei were co-stained with DAPI. For the competition study, cells were incubated with acetazolamide (Az) (100 μM) for 2 hour before incubation with agents.

[3] = Biodistribution of i.v. administered compound in HeLa tumor bearing mice; assay type: in vivo; conditions: 2 nmoles i.v., 24 hr, excised tissues, reflectance mode
Description: Female NU/NU mice 6-8 weeks old (Charles River Laboratory, Wilmington, MA) were injected subcutaneously (s.c.) with HeLa cells (5×10^6) in the first mammary fat pads. Once tumors reached the desired volume (measured with calipers using the formula volume mm^3=(length×width^2)/2), mice were injected i.v. with compound C5 (2 nmoles) or nonbinding control D3. Mice were sacrificed by carbon dioxide asphyxiation 24 hr later and certain tissues removed, rinsed with saline, blotted dry, and the imaged on a VisEn FMT 2500 using the reflectance mode. Regions of interest (ROIs) were drawn around each organ using the FMT Software and the mean fluorescence (reported as counts/energy) determined for each organ and normalized to the mean fluorescence in tumors taken to be 100%.

HeLa tumors = assay: Imaging of tumors in vivo using CA agents (planar reflectance and FMT); conditions: NU/NU mice, bilateral HeLa tumors, 2 nmoles i.v., 24 hrs post-injection
Description: In this experiment, NU/NU mice 6-8 weeks old (Charles River Laboratory, Wilmington, MA) were injected subcutaneously (s.c.) with about 2×10^6 HeLa cells bilaterally in each mammary fat pad. When tumors reached an approximate size of 3×3 mm, mice were injected intravenously (i.v.) with 2 nmoles of carbonic anhydrase agent C5 or nonbinding control agent D3 (5 mice/probe+2 mice/no probe as control) in 100 μL volume via tail vein. Imaging was conducted at 24 hrs post-injection using a Fluorescence Molecular Tomography system (VisEn Medical, Bedford, MA) that is commercially available.

Chain of CA XII (O43570 25-354, species assumed): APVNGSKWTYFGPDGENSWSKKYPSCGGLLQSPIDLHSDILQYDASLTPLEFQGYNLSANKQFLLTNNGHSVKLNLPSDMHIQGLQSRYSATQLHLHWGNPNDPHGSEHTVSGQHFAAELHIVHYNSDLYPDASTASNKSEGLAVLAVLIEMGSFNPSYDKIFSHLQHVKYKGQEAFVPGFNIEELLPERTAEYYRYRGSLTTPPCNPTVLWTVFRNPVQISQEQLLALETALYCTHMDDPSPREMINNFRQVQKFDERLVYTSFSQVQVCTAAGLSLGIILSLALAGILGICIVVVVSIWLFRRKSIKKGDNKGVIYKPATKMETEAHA
Chain of CA XIV (Q9ULX7 16-337, species assumed): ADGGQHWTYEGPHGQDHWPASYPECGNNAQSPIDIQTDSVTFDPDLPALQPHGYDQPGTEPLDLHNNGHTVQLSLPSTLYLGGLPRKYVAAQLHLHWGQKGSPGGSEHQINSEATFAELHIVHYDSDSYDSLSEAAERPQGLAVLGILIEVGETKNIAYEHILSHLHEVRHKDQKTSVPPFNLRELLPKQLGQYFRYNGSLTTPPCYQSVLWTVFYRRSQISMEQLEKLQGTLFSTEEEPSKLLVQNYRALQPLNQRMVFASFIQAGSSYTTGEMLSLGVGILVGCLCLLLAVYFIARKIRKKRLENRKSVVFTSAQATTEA

Compound | pKi (CA IX [1]) | pKi (CA II) | pKi (CA XII) | pKi (CA XIV) | binding to hypoxic HeLa cells, flow cytometry (FIG. 3) (CA IX [2]) | binding to hypoxic and normoxic HeLa cells, fluorescence microscopy (FIG. 2) (CA IX [2]) | binding to hypoxic HeLa cells after excess acetazolamide, fluorescence microscopy (FIG. 2) (CA IX [2]) | signal on hypoxic HeLa cells with acetazolamide, flow cytometry (FIG. 3) (CA IX [2]) | specific binding to carbonic anhydrases (CA IX [1]; summary in words of Table 5: CA II, CA IX, CA XII, CA XIV) | tissue fluorescence (biodistribution), normalized to tumors (FIG. 4) [3] | tumor signal by planar reflectance and tomographic imaging (HeLa tumors)
CC1(C)C(/C=C/C(=C/C=C2/N(CCCS(=O)(=O)O)c3ccc4c(S(=O)(=O)O)cc(S(=O)(=O)O)cc4c3C2(C)C)c2ccc(C(=O)NCCCCCC(=O)NCc3ccc(C(=O)Nc4nnc(S(N)(=O)=O)s4)cc3)cn2)=[N+](CCCS(=O)(=O)[O-])c2ccc3c(S(=O)(=O)O)cc(S(=O)(=O)O)cc3c21 [Compound A3, 3-(2-((1E,3Z,5E)-5-(1,1-dimethyl-6,8-disulfo-3-(3-sulfopropyl)-1H-benzo[e]indol-2(3H)-ylidene)-3-(5-((6-oxo-6-((4-((5-sulfamoyl-1,3,4-thiadiazol-2-yl)carbamoyl)benzyl)amino)hexyl)carbamoyl)pyridin-2-yl)penta-1,3-dien-1-yl)-1,1-dimethyl-6,8-disulfo-1H-benzo[e]indol-3-ium-3-yl)propane-1-sulfonate] | 8.12 | 8.01 | 7.44 | 7.24 | increased binding | bound to CA IX receptors on the surface of the hypoxic cells but not normoxic cells | binding can be blocked | blocking of the signal | – | – | –
CC1(C)C(/C=C/C(=C/C=C2/N(CCCS(=O)(=O)O)c3ccc4c(S(=O)(=O)O)cc(S(=O)(=O)O)cc4c3C2(C)C)c2ccc(C(=O)NCCCCCC(=O)NCc3ccccc3)cn2)=[N+](CCCS(=O)(=O)[O-])c2ccc3c(S(=O)(=O)O)cc(S(=O)(=O)O)cc3c21 [Compound D3, 3-(2-((1E,3Z,5E)-3-(5-((6-(benzylamino)-6-oxohexyl)carbamoyl)pyridin-2-yl)-5-(1,1-dimethyl-6,8-disulfo-3-(3-sulfopropyl)-1H-benzo[e]indol-2(3H)-ylidene)penta-1,3-dien-1-yl)-1,1-dimethyl-6,8-disulfo-1H-benzo[e]indol-3-ium-3-yl)propane-1-sulfonate] | < 4.00 | < 4.00 | < 4.00 | < 4.00 | not | doesn't bind to either normoxic or hypoxic cells | – | – | no specific binding is detected | fluorescence accumulation only in the kidneys | little or no tumor signal
CN(CCCC(=O)NCc1ccc(C(=O)Nc2nnc(S(N)(=O)=O)s2)cc1)S(=O)(=O)c1cccc2c3c(ccc12)[N+](CCCS(=O)(=O)[O-])=C(/C=C/C=C/C=C1/N(CCCS(=O)(=O)O)c2ccc4c(S(=O)(=O)O)cc(S(=O)(=O)O)cc4c2C1(C)C)C3(C)C [Compound A1, 3-(2-((1E,3E,5E)-5-(1,1-dimethyl-6,8-disulfo-3-(3-sulfopropyl)-1H-benzo[e]indol-2(3H)-ylidene)penta-1,3-dien-1-yl)-1,1-dimethyl-6-(N-methyl-N-(4-oxo-4-((4-((5-sulfamoyl-1,3,4-thiadiazol-2-yl)carbamoyl)benzyl)amino)butyl)sulfamoyl)-1H-benzo[e]indol-3-ium-3-yl)propane-1-sulfonate] | 8.08 | 6.54 | 7.24 | 7.11 | – | – | – | – | – | – | –
CCN1/C(=C/C=C(/C=C/C2=[N+](CC)c3ccc4c(S(=O)(=O)[O-])cc(S(=O)(=O)O)cc4c3C2(C)C)c2ccc(C(=O)NCc3ccc(S(N)(=O)=O)cc3)cn2)C(C)(C)c2c1ccc1c(S(=O)(=O)O)cc(S(=O)(=O)O)cc21 [Compound B6, 3-ethyl-2-((1E,3Z,5E)-5-(3-ethyl-1,1-dimethyl-6,8-disulfo-1H-benzo[e]indol-2(3H)-ylidene)-3-(5-((4-sulfamoylbenzyl)carbamoyl)pyridin-2-yl)penta-1,3-dien-1-yl)-1,1-dimethyl-8-sulfo-1H-benzo[e]indol-3-ium-6-sulfonate] | 8.00 | 6.30 | 7.40 | 7.16 | – | – | – | – | – | – | –
CC1(C)C(/C=C/C(=C/C=C2/N(CCCS(=O)(=O)O)c3ccc4c(S(=O)(=O)O)cc(S(=O)(=O)O)cc4c3C2(C)C)c2ccc(C(=O)NCc3ccc(C(=O)Nc4nnc(S(N)(=O)=O)s4)cc3)cn2)=[N+](CCCS(=O)(=O)[O-])c2ccc3c(S(=O)(=O)O)cc(S(=O)(=O)O)cc3c21 [Compound A5, 3-(2-((1E,3Z,5E)-5-(1,1-dimethyl-6,8-disulfo-3-(3-sulfopropyl)-1H-benzo[e]indol-2(3H)-ylidene)-3-(5-((4-((5-sulfamoyl-1,3,4-thiadiazol-2-yl)carbamoyl)benzyl)carbamoyl)pyridin-2-yl)penta-1,3-dien-1-yl)-1,1-dimethyl-6,8-disulfo-1H-benzo[e]indol-3-ium-3-yl)propane-1-sulfonate] | 8.10 | 6.57 | 7.37 | 7.35 | increased binding | bound to CA IX receptors on the surface of the hypoxic cells but not normoxic cells | binding can be blocked | blocking of the signal | – | – | –
CCN1/C(=C/C=C(/C=C/C2=[N+](CC)c3ccc4c(S(=O)(=O)[O-])cc(S(=O)(=O)O)cc4c3C2(C)C)c2ccc(C(=O)NCc3ccc(C(=O)Nc4nnc(S(N)(=O)=O)s4)cc3)cn2)C(C)(C)c2c1ccc1c(S(=O)(=O)O)cc(S(=O)(=O)O)cc21 [Compound A6, 3-ethyl-2-((1E,3Z,5E)-5-(3-ethyl-1,1-dimethyl-6,8-disulfo-1H-benzo[e]indol-2(3H)-ylidene)-3-(5-((4-((5-sulfamoyl-1,3,4-thiadiazol-2-yl)carbamoyl)benzyl)carbamoyl)pyridin-2-yl)penta-1,3-dien-1-yl)-1,1-dimethyl-8-sulfo-1H-benzo[e]indol-3-ium-6-sulfonate] | 8.11 | 7.57 | 7.40 | 7.08 | – | – | – | – | – | – | –
